Assay results as given in patent US8003081B2, “Method for improvement of tolerance for therapeutically effective agents delivered by inhalation” (priority 2004, dated 2011).
Like-named read-outs stand apart in the source and are kept apart here.

Columns and labels:
[1] = test system: mild to moderate asthma patients; conditions: placebo=0.35
[2] = Shelf-life and storage stability of lidocaine formulations; type: physicochemical
[3] = 100 mg in 2.5 ml of 40 mg/ml solution, PARI LC PLUS nebulizer; cited from earlier work

CCN(CC)CC(=O)Nc1c(C)cccc1C [lidocaine, acetamide 2-(diethylamino)-N-(2,6-dimethylphenyl)]
AQLQ environmental domain, mean change at week 12 from baseline ([1]; 10 mg lidocaine, p=0.012 v. placebo): 2.09
AQLQ environmental domain, mean change at week 12 from baseline ([1]; 40 mg lidocaine, p=0.01 v. placebo): 2.45
stable without loss of strength ([2]; 1%, 4% or 10% solution in Blow-Fill-Seal vials with overwrap, room temperature): 9-12 months
shelf-life of the dry form ([2]; dry form): at least 2 years
duration of oral numbing of lips, tongue and mucosa with impaired gag reflex following inhalation [3]: approximately 15 minutes
